Assays:
Assay in all cases: radiometric filter-binding kinase assay, Kinase HotSpot
Conditions in all cases: compound 0.5 µM; ATP 10 µM
BMX (human) = BMX (human) (UniProt P51813)
PIM2 (human) = PIM2 (human) (UniProt Q9P1W9)
IGF1R (human) = IGF1R (human) (UniProt P08069)
EPHA1 (human) = EPHA1 (human) (UniProt P21709)
CSNK1G2 (human) = CSNK1G2 (human) (UniProt P78368)
RAF1 (human) = RAF1 (human) (UniProt P04049)
CDK1 CCNB1 (human) = CDK1 CCNB1 (human) (UniProt P06493+P14635)
CDK7 CCNH MNAT1 (human) = CDK7 CCNH MNAT1 (human) (UniProt P50613+P51948+P51946)
LRRK2 (human) = LRRK2 (human) (UniProt Q5S007)
INSRR (human) = INSRR (human) (UniProt P14616)
BLK (human) = BLK (human) (UniProt P51451)
MAP3K9 (human) = MAP3K9 (human) (UniProt P80192)
RPS6KB1 (human) = RPS6KB1 (human) (UniProt P23443)
MAPK8 (human) = MAPK8 (human) (UniProt P45983)
GRK5 (human) = GRK5 (human) (UniProt P34947)
BTK (human) = BTK (human) (UniProt Q06187)
STK10 (human) = STK10 (human) (UniProt O94804)
TAOK3 (human) = TAOK3 (human) (UniProt Q9H2K8)
RIPK2 (human) = RIPK2 (human) (UniProt O43353)
CSNK1G3 (human) = CSNK1G3 (human) (UniProt Q9Y6M4)
FES (human) = FES (human) (UniProt P07332)
CDK3 CCNE1 (human) = CDK3 CCNE1 (human) (UniProt Q00526+P24864)
SRPK1 (human) = SRPK1 (human) (UniProt Q96SB4)
MAP4K4 (human) = MAP4K4 (human) (UniProt O95819)
DYRK4 (human) = DYRK4 (human) (UniProt Q9NR20)
ABL1 (human) = ABL1 (human) (UniProt P00519)
GRK6 (human) = GRK6 (human) (UniProt P43250)
NEK3 (human) = NEK3 (human) (UniProt P51956)
LTK (human) = LTK (human) (UniProt P29376)
NEK4 (human) = NEK4 (human) (UniProt P51957)
KDR (human) = KDR (human) (UniProt P35968)
DMPK (human) = DMPK (human) (UniProt Q09013)
TSSK1B (human) = TSSK1B (human) (UniProt Q9BXA7)
AURKC (human) = AURKC (human) (UniProt Q9UQB9)
ROS1 (human) = ROS1 (human) (UniProt P08922)
PLK2 (human) = PLK2 (human) (UniProt Q9NYY3)
MAP3K5 (human) = MAP3K5 (human) (UniProt Q99683)
DYRK1A (human) = DYRK1A (human) (UniProt Q13627)
PAK6 (human) = PAK6 (human) (UniProt Q9NQU5)
PRKCI (human) = PRKCI (human) (UniProt P41743)
FLT1 (human) = FLT1 (human) (UniProt P17948)
MST4 (human) = MST4 (human) (UniProt Q9P289)

Chain of GRK6 (human) (P43250 whole entry, looked up): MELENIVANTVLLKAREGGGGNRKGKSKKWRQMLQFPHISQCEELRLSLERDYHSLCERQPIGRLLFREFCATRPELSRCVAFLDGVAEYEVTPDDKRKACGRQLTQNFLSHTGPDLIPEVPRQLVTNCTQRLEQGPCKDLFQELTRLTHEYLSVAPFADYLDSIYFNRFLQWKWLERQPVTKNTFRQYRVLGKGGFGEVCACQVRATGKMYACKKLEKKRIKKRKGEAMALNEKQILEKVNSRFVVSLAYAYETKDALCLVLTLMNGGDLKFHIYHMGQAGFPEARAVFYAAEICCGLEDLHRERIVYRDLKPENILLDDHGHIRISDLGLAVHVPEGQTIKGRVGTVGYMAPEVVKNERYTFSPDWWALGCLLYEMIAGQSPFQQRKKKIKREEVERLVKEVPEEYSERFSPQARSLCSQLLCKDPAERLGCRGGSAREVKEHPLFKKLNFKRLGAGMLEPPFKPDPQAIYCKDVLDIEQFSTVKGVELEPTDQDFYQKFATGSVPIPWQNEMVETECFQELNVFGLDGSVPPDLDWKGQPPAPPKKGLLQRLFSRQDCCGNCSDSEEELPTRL
Chain of STK10 (human) (O94804 whole entry, looked up): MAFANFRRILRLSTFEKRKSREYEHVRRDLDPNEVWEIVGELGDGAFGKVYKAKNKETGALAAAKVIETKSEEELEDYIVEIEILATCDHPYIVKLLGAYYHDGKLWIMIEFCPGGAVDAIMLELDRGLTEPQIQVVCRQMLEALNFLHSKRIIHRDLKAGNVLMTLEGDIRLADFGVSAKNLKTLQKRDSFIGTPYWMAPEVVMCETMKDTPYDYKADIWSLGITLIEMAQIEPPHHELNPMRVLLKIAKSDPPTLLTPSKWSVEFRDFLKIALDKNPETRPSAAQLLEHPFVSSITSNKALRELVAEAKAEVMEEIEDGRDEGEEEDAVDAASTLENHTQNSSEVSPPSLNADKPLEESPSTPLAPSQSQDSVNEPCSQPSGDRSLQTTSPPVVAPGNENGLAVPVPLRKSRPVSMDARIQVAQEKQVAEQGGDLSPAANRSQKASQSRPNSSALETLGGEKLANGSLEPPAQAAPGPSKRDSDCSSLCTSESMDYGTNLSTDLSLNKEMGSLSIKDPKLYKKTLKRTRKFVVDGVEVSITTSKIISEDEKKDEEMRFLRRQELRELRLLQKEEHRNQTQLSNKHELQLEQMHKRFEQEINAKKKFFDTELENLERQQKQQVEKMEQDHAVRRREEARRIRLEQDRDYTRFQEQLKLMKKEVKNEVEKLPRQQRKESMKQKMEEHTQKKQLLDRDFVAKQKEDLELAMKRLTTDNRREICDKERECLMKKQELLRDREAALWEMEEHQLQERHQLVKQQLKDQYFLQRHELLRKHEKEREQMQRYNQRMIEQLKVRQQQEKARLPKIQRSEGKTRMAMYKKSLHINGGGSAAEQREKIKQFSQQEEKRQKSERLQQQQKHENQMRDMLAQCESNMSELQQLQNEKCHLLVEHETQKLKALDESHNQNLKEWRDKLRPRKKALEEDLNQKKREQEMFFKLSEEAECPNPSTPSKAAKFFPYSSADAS
Chain of MAP4K4 (human) (O95819 whole entry, looked up): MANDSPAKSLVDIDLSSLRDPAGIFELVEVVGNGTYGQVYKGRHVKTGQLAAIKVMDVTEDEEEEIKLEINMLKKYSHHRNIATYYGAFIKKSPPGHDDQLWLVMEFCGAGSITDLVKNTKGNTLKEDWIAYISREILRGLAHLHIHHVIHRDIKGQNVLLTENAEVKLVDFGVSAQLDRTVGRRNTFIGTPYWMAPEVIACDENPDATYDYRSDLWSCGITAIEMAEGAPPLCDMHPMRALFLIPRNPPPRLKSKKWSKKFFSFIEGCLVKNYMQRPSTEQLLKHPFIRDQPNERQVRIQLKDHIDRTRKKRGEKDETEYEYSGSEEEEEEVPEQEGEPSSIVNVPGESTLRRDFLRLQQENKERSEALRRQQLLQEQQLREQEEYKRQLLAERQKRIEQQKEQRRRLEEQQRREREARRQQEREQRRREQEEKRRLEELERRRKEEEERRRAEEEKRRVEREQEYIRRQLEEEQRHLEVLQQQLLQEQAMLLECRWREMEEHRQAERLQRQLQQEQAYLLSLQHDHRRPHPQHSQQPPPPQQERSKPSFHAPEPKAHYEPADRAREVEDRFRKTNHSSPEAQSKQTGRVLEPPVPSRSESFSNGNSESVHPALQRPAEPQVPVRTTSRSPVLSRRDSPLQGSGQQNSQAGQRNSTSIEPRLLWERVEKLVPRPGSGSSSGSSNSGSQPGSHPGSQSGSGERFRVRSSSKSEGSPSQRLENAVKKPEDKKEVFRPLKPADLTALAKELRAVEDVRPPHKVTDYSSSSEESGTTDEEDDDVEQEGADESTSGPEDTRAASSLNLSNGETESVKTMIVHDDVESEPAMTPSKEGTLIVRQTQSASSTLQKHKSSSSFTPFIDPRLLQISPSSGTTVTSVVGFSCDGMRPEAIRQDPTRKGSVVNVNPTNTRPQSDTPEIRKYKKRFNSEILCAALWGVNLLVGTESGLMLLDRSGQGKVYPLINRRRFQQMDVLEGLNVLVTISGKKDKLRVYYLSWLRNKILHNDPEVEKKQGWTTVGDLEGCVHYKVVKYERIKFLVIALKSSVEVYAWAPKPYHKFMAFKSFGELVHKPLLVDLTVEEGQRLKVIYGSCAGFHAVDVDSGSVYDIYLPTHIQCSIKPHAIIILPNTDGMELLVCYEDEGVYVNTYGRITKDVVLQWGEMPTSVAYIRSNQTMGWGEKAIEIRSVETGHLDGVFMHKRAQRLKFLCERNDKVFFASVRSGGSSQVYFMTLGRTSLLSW
Chain of TSSK1B (human) (Q9BXA7 whole entry, looked up): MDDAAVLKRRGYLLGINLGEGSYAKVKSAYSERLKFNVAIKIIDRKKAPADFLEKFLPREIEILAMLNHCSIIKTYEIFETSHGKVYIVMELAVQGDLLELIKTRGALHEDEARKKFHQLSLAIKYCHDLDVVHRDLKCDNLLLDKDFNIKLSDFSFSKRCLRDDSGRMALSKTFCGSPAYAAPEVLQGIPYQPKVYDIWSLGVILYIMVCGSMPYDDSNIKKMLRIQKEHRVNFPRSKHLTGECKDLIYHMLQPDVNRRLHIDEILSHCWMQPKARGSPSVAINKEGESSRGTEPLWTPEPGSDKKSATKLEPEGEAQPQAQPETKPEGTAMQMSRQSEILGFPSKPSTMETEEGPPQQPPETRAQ
Chain of LTK (human) (P29376 whole entry, looked up): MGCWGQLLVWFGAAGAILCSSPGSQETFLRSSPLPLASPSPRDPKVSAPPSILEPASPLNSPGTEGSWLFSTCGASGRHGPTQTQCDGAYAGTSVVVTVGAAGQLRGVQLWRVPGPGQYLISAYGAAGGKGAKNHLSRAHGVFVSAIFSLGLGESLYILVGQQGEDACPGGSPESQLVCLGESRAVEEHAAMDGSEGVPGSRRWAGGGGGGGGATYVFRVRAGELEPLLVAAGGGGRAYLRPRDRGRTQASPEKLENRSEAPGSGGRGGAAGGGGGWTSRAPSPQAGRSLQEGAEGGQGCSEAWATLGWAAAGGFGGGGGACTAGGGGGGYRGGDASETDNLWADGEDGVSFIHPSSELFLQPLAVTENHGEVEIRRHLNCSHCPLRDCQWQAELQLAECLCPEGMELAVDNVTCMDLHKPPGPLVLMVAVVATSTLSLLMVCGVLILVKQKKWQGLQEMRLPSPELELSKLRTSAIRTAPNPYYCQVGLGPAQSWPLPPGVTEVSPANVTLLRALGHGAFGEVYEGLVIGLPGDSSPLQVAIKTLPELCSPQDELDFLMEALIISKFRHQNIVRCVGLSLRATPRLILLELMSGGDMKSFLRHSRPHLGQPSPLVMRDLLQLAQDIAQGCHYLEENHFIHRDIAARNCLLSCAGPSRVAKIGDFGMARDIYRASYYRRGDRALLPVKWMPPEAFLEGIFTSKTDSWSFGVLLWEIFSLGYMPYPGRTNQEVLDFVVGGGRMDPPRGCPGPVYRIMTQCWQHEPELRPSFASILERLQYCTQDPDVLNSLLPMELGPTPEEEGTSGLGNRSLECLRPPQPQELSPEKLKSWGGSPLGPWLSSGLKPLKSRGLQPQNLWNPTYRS
Chain of NEK3 (human) (P51956 whole entry, looked up): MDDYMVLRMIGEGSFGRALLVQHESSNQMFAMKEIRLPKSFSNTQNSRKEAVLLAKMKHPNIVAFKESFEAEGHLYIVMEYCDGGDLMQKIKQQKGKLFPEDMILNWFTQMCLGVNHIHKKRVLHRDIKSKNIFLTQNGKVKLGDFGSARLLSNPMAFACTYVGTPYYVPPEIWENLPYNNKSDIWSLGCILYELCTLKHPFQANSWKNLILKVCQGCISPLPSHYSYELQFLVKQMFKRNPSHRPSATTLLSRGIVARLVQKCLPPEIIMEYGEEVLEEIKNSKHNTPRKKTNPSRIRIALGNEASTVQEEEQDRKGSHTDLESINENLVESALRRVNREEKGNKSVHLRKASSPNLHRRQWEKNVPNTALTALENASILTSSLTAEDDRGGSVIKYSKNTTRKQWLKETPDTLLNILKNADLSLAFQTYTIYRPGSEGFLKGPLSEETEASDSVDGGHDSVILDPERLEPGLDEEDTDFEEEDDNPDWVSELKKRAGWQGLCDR
Chain of AURKC (human) (Q9UQB9 whole entry, looked up): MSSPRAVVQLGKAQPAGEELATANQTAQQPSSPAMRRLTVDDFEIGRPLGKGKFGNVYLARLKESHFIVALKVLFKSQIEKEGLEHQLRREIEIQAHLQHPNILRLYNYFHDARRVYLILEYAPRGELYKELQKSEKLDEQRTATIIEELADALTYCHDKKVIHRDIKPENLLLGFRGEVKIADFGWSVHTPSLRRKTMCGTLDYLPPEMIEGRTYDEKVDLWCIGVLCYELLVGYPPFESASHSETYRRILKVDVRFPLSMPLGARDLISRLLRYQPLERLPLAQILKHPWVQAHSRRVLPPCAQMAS

N#C/C(=C(/N)Sc1ccc(N)cc1)c1ccccc1C(F)(F)F
residual activity (BMX (human)): 99.7%
residual activity (PIM2 (human)): 103%
residual activity (IGF1R (human)): 97.4%
residual activity (EPHA1 (human)): 100%
residual activity (CSNK1G2 (human)): 96.4%
residual activity (RAF1 (human)): 103%
residual activity (CDK1 CCNB1 (human)): 105%
residual activity (CDK7 CCNH MNAT1 (human)): 100%
residual activity (LRRK2 (human)): 100%
residual activity (INSRR (human)): 88.1%
residual activity (BLK (human)): 111%
residual activity (MAP3K9 (human)): 85.9%
residual activity (RPS6KB1 (human)): 102%
residual activity (MAPK8 (human)): 112%
residual activity (GRK5 (human)): 102%
residual activity (BTK (human)): 93.5%
residual activity (STK10 (human)): 88.7%
residual activity (TAOK3 (human)): 98.6%
residual activity (RIPK2 (human)): 91%
residual activity (CSNK1G3 (human)): 103%
residual activity (FES (human)): 98%
residual activity (CDK3 CCNE1 (human)): 105%
residual activity (SRPK1 (human)): 96.5%
residual activity (MAP4K4 (human)): 93.4%
residual activity (DYRK4 (human)): 92.4%
residual activity (ABL1 (human)): 106%
residual activity (GRK6 (human)): 100%
residual activity (NEK3 (human)): 99.6%
residual activity (LTK (human)): 100%
residual activity (NEK4 (human)): 95.9%
residual activity (KDR (human)): 94.4%
residual activity (DMPK (human)): 102%
residual activity (TSSK1B (human)): 103%
residual activity (AURKC (human)): 97.5%
residual activity (ROS1 (human)): 94.4%
residual activity (PLK2 (human)): 98.1%
residual activity (MAP3K5 (human)): 108%
residual activity (DYRK1A (human)): 93.9%
residual activity (PAK6 (human)): 107%
residual activity (PRKCI (human)): 102%
residual activity (FLT1 (human)): 85.4%
residual activity (MST4 (human)): 97.2%
